Assay: Breakdown products by GCMS after Maillard reaction in the presence of Tryptophan
Assay type: physicochemical
Settings: with Tryptophan, pH 7, 160° C., 10 min
Experimental: Controls were prepared addition of 1 mL of pH 7 buffer to the amino acids. The samples were rapidly heated to 160° C. and held at this temperature for 10 min. Samples were rapidly cooled afterwards, and absorbance at 500 nm was measured for each reaction mixture. Volatiles were analysed using gas chromatography mass spectrometry (GCMS) analysis. An Agilent Technologies 5975B Inert XL MSD gas chromatography, single quadruple mass spectrometer was used for analysis of volatiles. Samples were added to separate GCMS headspace vials and weighed. 0.03 g of 0.01% 3-heptanone in water was added and the vial was sealed for GCMS solid phase micro extraction (SPME) analysis. Samples were analysed in a randomized order. Samples were incubated and agitated at 250 RPM, at 60° C. for 15 min prior to SPME analysis of volatiles. The SPME fibre (50/30 DVB/CAR/PDMS, 23 Ga) extracted for 10 min, then thermally desorbed at 250° C. for 5 min. A 30 m×0.25 mm×0.25 μm HP-5MS column was used (Phenomenex, UK). Oven temperature settings: 31° C.-5 min, 5° C./min to 150° C., 30° C./min to 240° C. Inlet settings: 250° C., pressure 10.4 psi, flow 11.2 mL/min, split ratio 7:1. MS operated in full scan mode from 40 to 400 m/z with a scan time of 0.2s. The peak area of the aroma compounds was compared to the peak of the internal standard 3-heptanone and corrected for the weight of the sample.
The concentration of the different classes of Maillard reaction breakdown products is presented in Tables 9B-E. The same data as Tables 9B-E is also presented in FIG. 27. Concentrations are in parts per billion of the difference non-enzymatic breakdown products for the different compositions at 160° C. analysed by GCMS.

Concentration of 2-Butanone: 3.16 ppb
Concentration of 2-Propanone, 1-hydroxy-: 20.48 ppb
Concentration of Diacetyl (2,3-Butanedione): 6.99 ppb
Concentration of Furan, 2-methyl-: 0.25 ppb
Concentration of Furan, 2-pentyl-: 0.03 ppb
Concentration of Furfural: 0.03 ppb
Concentration of Indole: 20.81 ppb
Concentration of Pyrazine, 2,5-diethyl-: 5.74 ppb
Concentration of Pyrazine, 2,5-dimethyl-: 778.85 ppb
Concentration of Pyrazine, 2-ethyl-5-methyl-: 201.9 ppb
Concentration of Pyrazine, ethyl-: 0.19 ppb
Concentration of Pyrazine, methyl-: 0.56 ppb
SMILES: OC[C@H]1O[C@@](CO)(O[C@H]2O[C@H](CO)[C@@H](O)[C@H](O)[C@H]2O)[C@@H](O)[C@@H]1O [Sucrose]

From patent publication US20240114940A1, “SACCHARIDE COMPOSITIONS HAVING SUCROSE-LIKE CHARACTERISTICS AND RELATED METHODS” (priority 2021, published 2024)
